PubChem BioAssay AID248 (DTP/NCI, 2004)
Where “and” joins values, the source holds several entries; their conditions need not be identical. Equal values may be shown once. Inconclusive results and toxic doses are left out.

System: L1210 leukemia ip in BDF1 mice, survival T/C
Test: NCI In Vivo Anticancer Drug Screen. Data for tumor model L1210 Leukemia (intraperitoneal) in B6D2F1 (BDF1) mice
Settings: endpoint: mean survival time, higher = longer survival
How it was run: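 Read-out is survival time, reported as the treated-group measurement over the vehicle-control measurement.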

[1] = dose: 100.0 mg/kg/injection, schedule: Q01DX001 (ip), vehicle: carboxymethylcellulose (CMC)
[2] = dose: 200.0 mg/kg/injection, schedule: Q01DX001 (ip), vehicle: carboxymethylcellulose (CMC)
[3] = dose: 100.0 mg/kg/injection, schedule: Q04DX003 (ip), vehicle: Klucel (hydroxypropylcellulose) (HPC)
[4] = dose: 200.0 mg/kg/injection, schedule: Q04DX003 (ip), vehicle: Klucel (hydroxypropylcellulose) (HPC)
[5] = dose: 400.0 mg/kg/injection, schedule: Q04DX003 (ip), vehicle: Klucel (hydroxypropylcellulose) (HPC)
[6] = dose: 100.0 mg/kg/injection, schedule: Q01DX009 (ip), vehicle: Klucel (hydroxypropylcellulose) (HPC)
[7] = dose: 200.0 mg/kg/injection, schedule: Q01DX009 (ip), vehicle: Klucel (hydroxypropylcellulose) (HPC)
[8] = dose: 400.0 mg/kg/injection, schedule: Q01DX009 (ip), vehicle: Klucel (hydroxypropylcellulose) (HPC)
[9] = dose: 100.0 mg/kg/injection, schedule: Q04DX003 (ip), vehicle: saline with Tween-80
[10] = dose: 200.0 mg/kg/injection, schedule: Q04DX003 (ip), vehicle: saline with Tween-80
[11] = dose: 400.0 mg/kg/injection, schedule: Q04DX003 (ip), vehicle: saline with Tween-80
[12] = dose: 100.0 mg/kg/injection, schedule: Q04DX002 (ip), vehicle: Klucel (hydroxypropylcellulose) (HPC)

CCCC(N=Cc1ccccc1O)C(=O)O.CCCC(N=Cc1ccccc1O)C(=O)O.[Fe] (configuration not stated)
T/C (dose: 25.0 mg/kg/injection, schedule: Q01DX009 (ip), vehicle: saline): 95 % of control | T/C (dose: 25.0 mg/kg/injection, schedule: Q04DX003 (ip), vehicle: saline): 98 % of control | T/C (dose: 50.0 mg/kg/injection, schedule: Q01DX009 (ip), vehicle: saline): 93 % of control | T/C (dose: 50.0 mg/kg/injection, schedule: Q04DX003 (ip), vehicle: saline): 98 % of control | T/C (dose: 100.0 mg/kg/injection, schedule: Q04DX003 (ip), vehicle: saline): 96 % of control and 98 % of control

COc1ccc(-c2ccc(CC(N)=O)cc2)cc1Cl
T/C [1]: 91 % of control | T/C [2]: 94 % of control | T/C (dose: 400.0 mg/kg/injection, schedule: Q01DX001 (ip), vehicle: carboxymethylcellulose (CMC)): 89 % of control

CCCCCCCCCCCCCCCCS(=O)(=O)N/N=C(/c1ccc(N)cc1Cl)N1CCCCC1
T/C [3]: 86 % of control | T/C [4]: 94 % of control | T/C [5]: 91 % of control

COc1ccccc1OCC(O)COC(N)=O (configuration not stated)
T/C (dose: 25.0 mg/kg/injection, schedule: Q01DX009 (ip), vehicle: Klucel (hydroxypropylcellulose) (HPC)): 100 % of control | T/C (dose: 50.0 mg/kg/injection, schedule: Q01DX009 (ip), vehicle: Klucel (hydroxypropylcellulose) (HPC)): 103 % of control | T/C [6]: 106 % of control | T/C [7]: 103 % of control | T/C [8]: 106 % of control

O=[N+]([O-])c1cccc2c1CCCC2
T/C (dose: 12.5 mg/kg/injection, schedule: Q01DX009 (ip), vehicle: saline with Tween-80): 98 % of control | T/C (dose: 25.0 mg/kg/injection, schedule: Q01DX009 (ip), vehicle: saline with Tween-80): 93 % of control | T/C (dose: 50.0 mg/kg/injection, schedule: Q01DX009 (ip), vehicle: saline with Tween-80): 98 % of control | T/C [9]: 107 % of control | T/C (dose: 200.0 mg/kg/injection, schedule: Q01DX009 (ip), vehicle: saline with Tween-80): 87 % of control | T/C [10]: 105 % of control | T/C (dose: 400.0 mg/kg/injection, schedule: Q01DX009 (ip), vehicle: saline with Tween-80): 105 % of control | T/C [11]: 96 % of control

COc1ccc(OC)c(-n2cccc2C#N)c1
T/C [12]: 104 % of control | T/C (dose: 200.0 mg/kg/injection, schedule: Q04DX002 (ip), vehicle: Klucel (hydroxypropylcellulose) (HPC)): 97 % of control | T/C (dose: 400.0 mg/kg/injection, schedule: Q04DX002 (ip), vehicle: Klucel (hydroxypropylcellulose) (HPC)): 104 % of control

CCCCCNC(=O)CCCC
T/C [1]: 103 % of control | T/C (dose: 100.0 mg/kg/injection, schedule: Q01DX009 (ip), vehicle: carboxymethylcellulose (CMC)): 97 % of control and 108 % of control | T/C (dose: 100.0 mg/kg/injection, schedule: Q04DX002 (ip), vehicle: carboxymethylcellulose (CMC)): 97 % of control | T/C (dose: 100.0 mg/kg/injection, schedule: Q04DX003 (ip), vehicle: carboxymethylcellulose (CMC)): 101 % of control | T/C [2]: 104 % of control | T/C (dose: 200.0 mg/kg/injection, schedule: Q01DX009 (ip), vehicle: carboxymethylcellulose (CMC)): 101 % of control and 103 % of control | T/C (dose: 200.0 mg/kg/injection, schedule: Q04DX002 (ip), vehicle: carboxymethylcellulose (CMC)): 97 % of control | T/C (dose: 200.0 mg/kg/injection, schedule: Q04DX003 (ip), vehicle: carboxymethylcellulose (CMC)): 97 % of control | T/C (dose: 400.0 mg/kg/injection, schedule: Q04DX002 (ip), vehicle: carboxymethylcellulose (CMC)): 97 % of control | T/C (dose: 400.0 mg/kg/injection, schedule: Q04DX003 (ip), vehicle: carboxymethylcellulose (CMC)): 94 % of control

COc1cccc(C2N(Cc3ccc(N(CCCl)CCCl)cc3C)CCCN2Cc2ccc(N(CCCl)CCCl)cc2C)c1O
T/C (dose: 50.0 mg/kg/injection, schedule: Q01DX001 (ip), vehicle: carboxymethylcellulose (CMC)): 116 % of control | T/C [1]: 120 % of control | T/C [2]: 100 % of control

NC(=O)Oc1ccc(C2CC(=O)C(C(N)=O)C(=O)C2)cc1 (configuration not stated)
T/C (dose: 100.0 mg/kg/injection, schedule: Q01DX001 (ip), vehicle: other): 97 % of control | T/C [9]: 108 % of control | T/C (dose: 200.0 mg/kg/injection, schedule: Q01DX001 (ip), vehicle: other): 92 % of control | T/C [10]: 103 % of control | T/C (dose: 400.0 mg/kg/injection, schedule: Q01DX001 (ip), vehicle: other): 94 % of control | T/C [11]: 100 % of control

NC(=Nc1ccc(N=C(N)N[N+](=O)[O-])cc1)N[N+](=O)[O-]
T/C (dose: 25.0 mg/kg/injection, schedule: Q04DX002 (ip), vehicle: Klucel (hydroxypropylcellulose) (HPC)): 107 % of control | T/C (dose: 50.0 mg/kg/injection, schedule: Q04DX002 (ip), vehicle: Klucel (hydroxypropylcellulose) (HPC)): 96 % of control | T/C [12]: 96 % of control

O=C(Nc1ccc(C2=NCCN2)cc1)c1cccc(C(=O)Nc2ccc(C3=NCCN3)cc2)c1O
T/C (dose: 2.5 mg/kg/injection, schedule: Q01DX Z (ip), vehicle: carboxymethylcellulose (CMC)): 120 % of control | T/C (dose: 5.0 mg/kg/injection, schedule: Q01DX Z (ip), vehicle: carboxymethylcellulose (CMC)): 105 % of control | T/C (dose: 7.5 mg/kg/injection, schedule: Q01DX Z (ip), vehicle: carboxymethylcellulose (CMC)): 109 % of control | T/C (dose: 10.0 mg/kg/injection, schedule: Q01DX Z (ip), vehicle: carboxymethylcellulose (CMC)): 157 % of control | T/C (dose: 15.0 mg/kg/injection, schedule: Q01DX Z (ip), vehicle: carboxymethylcellulose (CMC)): 259 % of control | T/C (dose: 20.0 mg/kg/injection, schedule: Q01DX Z (ip), vehicle: carboxymethylcellulose (CMC)): 272 % of control | T/C (dose: 30.0 mg/kg/injection, schedule: Q01DX Z (ip), vehicle: carboxymethylcellulose (CMC)): 296 % of control | T/C (dose: 31.0 mg/kg/injection, schedule: Q01DX Z (oral), vehicle: carboxymethylcellulose (CMC)): 106 % of control | T/C (dose: 62.0 mg/kg/injection, schedule: Q01DX Z (oral), vehicle: carboxymethylcellulose (CMC)): 102 % of control | T/C (dose: 125.0 mg/kg/injection, schedule: Q01DX Z (oral), vehicle: carboxymethylcellulose (CMC)): 113 % of control | T/C (dose: 250.0 mg/kg/injection, schedule: Q01DX Z (oral), vehicle: carboxymethylcellulose (CMC)): 104 % of control

Cc1cc(C)c(O)c(C(C)(C)C)c1
T/C (dose: 50.0 mg/kg/injection, schedule: Q04DX003 (ip), vehicle: saline with Tween-80): 102 % of control | T/C [9]: 101 % of control | T/C [10]: 107 % of control

Cc1ccc(S(=O)(=O)OCC(C)C2CCC3C4CC=C5CC(Cl)CCC5(C)C4CCC23C)cc1 (configuration not stated)
T/C (dose: 100.0 mg/kg/injection, schedule: Q01DX001 (ip), vehicle: saline with Tween-80): 91 % of control | T/C (dose: 200.0 mg/kg/injection, schedule: Q01DX001 (ip), vehicle: saline with Tween-80): 102 % of control | T/C (dose: 400.0 mg/kg/injection, schedule: Q01DX001 (ip), vehicle: saline with Tween-80): 94 % of control

Nc1nc(-c2ccccc2)[nH]c(=O)n1
T/C [6]: 100 % of control | T/C [7]: 91 % of control | T/C [8]: 93 % of control

O=C(C[n+]1ccccc1-c1ccccn1)c1ccccc1
T/C (dose: 5.0 mg/kg/injection, schedule: Q01DX001 (ip), vehicle: saline): 103 % of control | T/C (dose: 10.0 mg/kg/injection, schedule: Q01DX001 (ip), vehicle: saline): 103 % of control | T/C (dose: 20.0 mg/kg/injection, schedule: Q01DX001 (ip), vehicle: saline): 105 % of control | T/C (dose: 40.0 mg/kg/injection, schedule: Q01DX001 (ip), vehicle: saline): 113 % of control

O=[N+]([O-])c1ccc(S(=O)NOCc2ccccc2)cc1 (configuration not stated)
T/C [6]: 96 % of control | T/C [7]: 94 % of control | T/C [8]: 91 % of control

COc1ccc(-c2[nH]c3ccccc3c2-c2ccc(OC)cc2)cc1
T/C (dose: 100.0 mg/kg/injection, schedule: Q01DX001 (ip), vehicle: saline): 89 % of control | T/C (dose: 200.0 mg/kg/injection, schedule: Q01DX001 (ip), vehicle: saline): 89 % of control | T/C (dose: 400.0 mg/kg/injection, schedule: Q01DX001 (ip), vehicle: saline): 95 % of control

O=C1c2ccccc2C(=C/C=C/c2ccccc2)c2ccccc21
T/C [3]: 99 % of control | T/C [4]: 89 % of control | T/C [5]: 92 % of control
